The values that follow come from patent publication US20220348564A1, “PHENYL-[1,3]DIOXOLO[4,5-C]PYRIDINYL-PHENYL-, PHENYL-[1,3]DIOXOLO[4,5-C]PYRIDINYL-HETEROARYL-, OR PHENYL-(1,3)DIOXO[4,5-C]PYRIDINYL-PIPERIDINYL-METHYL-OXETANYLMETHYL-1H-BENZO[D]IMIDAZOLE-CARBOXYLIC ACID DERIVATIVES AND METHODS OF USING SAME” (Eccogene (Shanghai) Co., Ltd., priority 2021, published 2022).

pEC50: −log10 of the molar value. Where only a bound is given, the exact number is not on record here.

This test deals with T1, human GLP-1 (Homo sapiens, UniProt P43220).
T1 construct: expressed in transfected cells
T1 sequence (P43220 24-463): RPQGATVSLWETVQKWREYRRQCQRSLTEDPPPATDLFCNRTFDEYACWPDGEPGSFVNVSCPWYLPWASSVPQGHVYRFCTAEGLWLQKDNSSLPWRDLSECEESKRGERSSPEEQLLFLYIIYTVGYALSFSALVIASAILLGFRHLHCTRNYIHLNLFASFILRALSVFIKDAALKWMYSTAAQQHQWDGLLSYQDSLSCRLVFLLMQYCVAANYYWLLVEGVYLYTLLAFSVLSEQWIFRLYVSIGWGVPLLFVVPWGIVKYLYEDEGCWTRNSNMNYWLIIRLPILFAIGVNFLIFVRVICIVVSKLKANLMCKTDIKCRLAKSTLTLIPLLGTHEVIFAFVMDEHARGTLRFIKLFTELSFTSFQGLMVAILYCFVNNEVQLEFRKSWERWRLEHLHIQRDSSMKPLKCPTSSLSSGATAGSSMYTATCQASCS
In words: h-GLP-1 activity assay (Cisbio cAMP Gs dynamic kit, HTRF). It counts as cell-based. As to conditions: HEK293 cells with stable expression of human GLP-1, relative EC50, 10 nM human GLP-1 = 100% response. How it is done: Human GLP-1 agonizing activity was detected in HEK293 cells with stable expression of human GLP-1 by Cisbio cAMP Gs dynamic kit (Catalog #62AM4PEC) according to manufacturer's protocol. Briefly, cells were collected and resuspended in assay buffer containing 0.1% BSA and 0.5 mM of IBMX at concentration to 2.5×10^5 cells/mL. Two μL 5× compound solution and 8 μL cell suspension were added to each well of low-volume 384 white assay plate. After 30 min incubation at 37° C., 5 μL cAMP-d2 working solution and 5 μL anti-cAMP antibody-cryptate were added to each well, and incubate at room temperature for 1 hr. Series dilution of cAMP was used as standard. Human GLP-1 (7-37) was used as positive control and 10 nM human GLP-1 was set as 100% response. HTRF signals were read at 665 and 615 nm with EnVision plate reader and calculated cAMP concentration by intrapolation to the standard curve. The EC50 value of the tested compounds was calculated by fitting the dose response curve using a 4-parameter non-linear regression routine and relative EC50 was presented in Table S.
Consider `C[C@]1(c2ccc(Cl)cn2)Oc2cccc(C3=CC[C@H](Cc4nc5ccc(C(=O)O)cc5n4Cc4cscn4)OC3)c2O1` (single isomer, unassigned) [Compound 114], for which the pEC50 is 7.00 to 7.70.
`C[C@]1(c2ccc(Cl)cc2F)Oc2cccc(C3=CC[C@@H](Cc4nc5ccc(C(=O)O)cc5n4C[C@@H]4CCO4)OC3)c2O1` (single isomer, unassigned) [Compound 101]: the pEC50 is 7.00 to 7.70.
`N#Cc1ccc(COc2cccc([C@H]3CC[C@@H](Cc4nc5ccc(C(=O)O)cc5n4C[C@@H]4CCO4)OC3)n2)c(F)c1` (single isomer, unassigned) [Compound 33] showed a pEC50 above 7.70.
`C[C@@]1(c2ccc(C3CC3)cn2)Oc2cccc(C3=CC[C@H](Cc4nc5c(F)cc(C(=O)O)cc5n4C[C@@H]4CCO4)OC3)c2O1` (single isomer, unassigned) [Compound 123] gave a negative-log EC50 (pEC50) above 7.70.
Take `C[C@]1(c2ccc(Cl)cn2)Oc2cccc(C3=CC[C@H](Cc4nc5ccc(C(=O)O)cc5n4Cc4cncs4)OC3)c2O1` (single isomer, unassigned) [Compound 112]: the pEC50 is above 7.70.
For `O=C(O)c1ccc2nc(C[C@@H]3CC[C@@H](c4cccc(OCc5ccc(Cl)cc5F)n4)CO3)n(Cc3cncs3)c2c1` (single isomer, unassigned) [Compound 29], the pEC50 is below 7.00.
Molecule `CC1(c2ccc(Cl)cc2F)Oc2cccc(C3CCC(Cc4nc5ccc(C(=O)O)cc5n4C[C@@H]4CCO4)CO3)c2O1` (mixture of isomers) [Compound 58, 2-((6-(2-(4-chloro-2-fluorophenyl)-2-methylbenzo[d][1,3]dioxol-4-yl)tetrahydro-2H-pyran-3-yl)methyl)-1-(((S)-oxetan-2-yl)methyl)-1H-benzo[d]imidazole-6-carboxylic acid] had a pEC50 below 7.00.
Consider `N#Cc1ccc(COc2nccc(C34CCC(Cc5nc6ccc(C(=O)O)cc6n5C[C@@H]5CCO5)(CC3)CC4)n2)c(F)c1` [Compound 34, (S)-2-((4-(2-((4-cyano-2-fluorobenzyl)oxy)pyrimidin-4-yl)bicyclo[2.2.2]octan-1-yl)methyl)-1-(oxetan-2-ylmethyl)-1H-benzo[d]imidazole-6-carboxylic acid], for which the pEC50 was below 7.00.
In the case of `O=C(O)c1ccc2nc(CN3CCC(c4cccc5c4CC(c4ccc(Cl)cn4)O5)CC3)n(C[C@@H]3CCO3)c2c1` (mixture of isomers) [Compound 27, 2-((4-(2-(5-chloropyridin-2-yl)-2,3-dihydrobenzofuran-4-yl)piperidin-1-yl)methyl)-1-(((S)-oxetan-2-yl)methyl)-1H-benzo[d]imidazole-6-carboxylic acid], the pEC50 is below 7.00.
For the molecule `CC1(c2c(F)cc(Cl)cc2F)Oc2cccc(C3=CCC(Cc4nc5ccc(C(=O)O)cc5n4C[C@@H]4CCO4)OC3)c2O1` (mixture of isomers) [Compound 109, 2-((5-(2-(4-chloro-2,6-difluorophenyl)-2-methylbenzo[d][1,3]dioxol-4-yl)-3,6-dihydro-2H-pyran-2-yl)methyl)-1-(((S)-oxetan-2-yl)methyl)-1H-benzo[d]imidazole-6-carboxylic acid], the pEC50 is above 7.70.
Molecule `O=C(O)c1ccc2nc(CC3CC=C(c4cccc5c4OC(c4ccc(Cl)cc4F)CO5)CO3)n(C[C@@H]3CCO3)c2c1` (mixture of isomers) [Compound 70, 2-((5-(3-(4-chloro-2-fluorophenyl)-2,3-dihydrobenzo[b][1,4]dioxin-5-yl)-3,6-dihydro-2H-pyran-2-yl)methyl)-1-(((S)-oxetan-2-yl)methyl)-1H-benzo[d]imidazole-6-carboxylic acid] showed a pEC50 of 7.00 to 7.70.
Regarding `C[C@@]1(c2ccc(Cl)cn2)Oc2cccc(-c3ccc(Cc4nc5ccc(C(=O)O)cc5n4C[C@@H]4CCO4)cc3)c2O1` (single isomer, unassigned) [Compound 41], the pEC50 was below 7.00.
Molecule `C[C@@]1(c2ccc(Cl)cn2)Oc2cccc(C3(F)CCN(Cc4nc5ccc(C(=O)O)cc5n4C[C@@H]4CCO4)CC3)c2O1` (single isomer, unassigned) [Compound 83] gave a pEC50 of 7.00 to 7.70.
Next, `Cc1cc(Cc2nc3ccc(C(=O)O)cc3n2C[C@@H]2CCO2)ccc1-c1cccc2c1OC(C)(c1ccc(Cl)cc1F)O2` (mixture of isomers) [Compound 43, 2-(4-(2-(4-chloro-2-fluorophenyl)-2-methylbenzo[d][1,3]dioxol-4-yl)-3-methylbenzyl)-1-(((S)-oxetan-2-yl)methyl)-1H-benzo[d]imidazole-6-carboxylic acid]: above 7.70; `C[C@@]1(c2ccc(Cl)cn2)Oc2cccc([C@@H]3CC[C@H](Cc4nc5ccc(C(=O)O)cc5n4C[C@@H]4CCO4)OC3)c2O1` (single isomer, unassigned) [Compound 103]: 7.00 to 7.70.
`C[C@]1(c2ccc(Cl)cn2)Oc2cccc(C3=CC[C@@H](Cc4nc5ccc(C(=O)O)cc5n4Cc4cncs4)OC3)c2O1` (single isomer, unassigned) [Compound 113] gave a pEC50 of 7.00 to 7.70.
With `CC1(c2ccc(Cl)cc2F)Oc2cccc(-c3nc(Cc4nc5ccc(C(=O)O)cc5n4C[C@@H]4CCO4)cs3)c2O1` (mixture of isomers) [Compound 25, 2-((2-(2-(4-chloro-2-fluorophenyl)-2-methylbenzo[d][1,3]dioxol-4-yl)thiazol-4-yl)methyl)-1-(((S)-oxetan-2-yl)methyl)-1H-benzo[d]imidazole-6-carboxylic acid], the pEC50 is below 7.00.
`CN1C(=O)C(c2ccc(Cl)cc2F)Oc2c(C3CCN(Cc4nc5ccc(C(=O)O)cc5n4C[C@@H]4CCO4)CC3)cccc21` (mixture of isomers) [Compound 105, 2-((4-(2-(4-chloro-2-fluorophenyl)-4-methyl-3-oxo-3,4-dihydro-2H-benzo[b][1,4]oxazin-8-yl)piperidin-1-yl)methyl)-1-(((S)-oxetan-2-yl)methyl)-1H-benzo[d]imidazole-6-carboxylic acid] had a pEC50 below 7.00.
As to `C[C@]1(c2ccc(Cl)cn2)Oc2cccc(C3=CC[C@@H](Cc4nc5c(F)cc(C(=O)O)cc5n4C[C@@H]4CCO4)OC3)c2O1` (single isomer, unassigned) [Compound 119], the pEC50 is 7.00 to 7.70.
`C[C@@]1(c2ccc(Cl)cc2F)Oc2cccc(-c3ccc(Cc4nc5ccc(C(=O)O)cc5n4C[C@@H]4CCO4)nc3)c2O1` (single isomer, unassigned) [Compound 4] showed a pEC50 below 7.00.
`C[C@@]1(c2ccc(Cl)cc2F)Oc2cccc(C3=CC[C@H](Cc4nc5ccc(C(=O)O)cc5n4C[C@@H]4CCO4)OC3)c2O1` (single isomer, unassigned) [Compound 106] gave a pEC50 below 7.00.
For the molecule `CC1(c2ccc(Cl)cc2F)Oc2cccc(-c3ncc(Cc4nc5ccc(C(=O)O)cc5n4C[C@@H]4CCO4)cn3)c2O1` (mixture of isomers) [Compound 21, 2-((2-(2-(4-chloro-2-fluorophenyl)-2-methylbenzo[d][1,3]dioxol-4-yl)pyrimidin-5-yl)methyl)-1-(((S)-oxetan-2-yl)methyl)-1H-benzo[d]imidazole-6-carboxylic acid], the pEC50 is 7.00 to 7.70.
The molecule `C[C@@]1(c2ccc(Cl)cc2F)Oc2cccc(-c3ccc(Cc4nc5ccc(C(=O)O)cc5n4C[C@@H]4CCO4)cc3)c2O1` (single isomer, unassigned) [Compound 3] showed a pEC50 below 7.00.
